Our source for the IC50 and EC50 values is patent publication US7538103B2, “Compounds for the treatment of hepatitis C” (Bristol-Myers Squibb Company, priority 2007, dated 2009).

The structures appear in SMILES notation. Where two headings read alike, the source gives them in different places.

One assay deals with T1, HCV NS5B (Hepatitis C virus genotype 1b, UniProt Q9WMX2).
T1 construct: The protein was expressed with an 18 amino acid C-terminal truncation to enhance the solubility; made in house; host or cells: E. coli BL21(DE3)
Briefly: Modified HCV NS5B RdRp enzyme assay (preincubation protocol). Type of assay: biochemical. On the procedure:
HCV NS5B RdRp cloning, expression, and purification. The cDNA encoding the NS5B protein of HCV, genotype 1b, was cloned into the pET21a expression vector. The protein was expressed with an 18 amino acid C-terminal truncation to enhance the solubility. The E. coli competent cell line BL21(DE3) was used for expression of the protein. Cultures were grown at 37° C. for ˜4 hours until the cultures reached an optical density of 2.0 at 600 nm. The cultures were cooled to 20° C. and induced with 1 mM IPTG. Fresh ampicillin was added to a final concentration of 50 μg/ml and the cells were grown overnight at 20° C.
Cell pellets (3 L) were lysed for purification to yield 15-24 mgs of purified NS5B. The lysis buffer consisted of 20 mM Tris-HCl, pH 7.4, 500 mM NaCl, 0.5% triton X-100, 1 mM DTT, 1 mM EDTA, 20% glycerol, 0.5 mg/ml lysozyme, 10 mM MgCl2, 15 ug/ml deoxyribonuclease I, and Complete TM protease inhibitor tablets (Roche). After addition of the lysis buffer, frozen cell pellets were resuspended using a tissue homogenizer. To reduce the viscosity of the sample, aliquots of the lysate were sonicated on ice using a microtip attached to a Branson sonicator. The sonicated lysate was centrifuged at 100,000×g for 1 hr at 4° C. and filtered through a 0.2 μm filter unit (Corning).
The protein was purified using three sequential chromatography steps: Heparin sepharose CL-6B, polyU sepharose 4B, and Hitrap SP sepharose (Pharmacia). The chromatography buffers were identical to the lysis buffer but contained no lysozyme, deoxyribonuclease I, MgCl2 or protease inhibitor and the NaCl concentration of the buffer was adjusted according to the requirements for charging the protein onto the column. Each column was eluted with a NaCl gradient which varied in length from 5-50 column volumes depending on the column type. After the final chromatography step, the resulting purity of the enzyme is >90% based on SDS-PAGE analysis. The enzyme was aliquoted and stored at −80° C.
Standard HCV NS5B RdRp enzyme assay. HCV RdRp genotype 1b assays were run in a final volume of 60 μl in 96 well plates (Costar 3912). The assay buffer is composed of 20 mM Hepes, pH 7.5, 2.5 mM KCl, 2.5 mM MgCl2, 1 mM DTT, 1.6 U RNAse inhibitor (Promega N2515), 0.1 mg/ml BSA (Promega R3961), and 2% glycerol. All compounds were serially diluted (3-fold) in DMSO and diluted further in water such that the final concentration of DMSO in the assay was 2%. HCV RdRp genotype 1b enzyme was used at a final concentration of 28 nM. A polyA template was used at 6 nM, and a biotinylated oligo-dT12 primer was used at 180 nM final concentration. Template was obtained commercially (Amersham 27-4110). Biotinylated primer was prepared by Sigma Genosys. 3H-UTP was used at 0.6 μCi (0.29 μM total UTP). Reactions were initiated by the addition of enzyme, incubated at 30° C. for 60 min, and stopped by adding 25 μl of 50 mM EDTA containing SPA beads (4 μg/μl, Amersham RPNQ 0007). Plates were read on a Packard Top Count NXT after >1 hr incubation at room temperature.
Modified HCV NS5B RdRp enzyme assay. A modified enzyme assay was performed essentially as described for the standard enzyme assay except for the following: The biotinylated oligo dT12 primer was precaptured on streptavidin-coated SPA beads by mixing primer and beads in assay buffer and incubating at room temperature for one hour. Unbound primer was removed after centrifugation. The primer-bound beads were resuspended in 20 mM Hepes buffer, pH 7.5 and used in the assay at final concentrations of 20 nM primer and 0.67 μg/μl beads. Order of addition in the assay: enzyme (14 nM) was added to diluted compound followed by the addition of a mixture of template (0.2 nM), 3H-UTP (0.6 μCi, 0.29 μM), and primer-bound beads, to initiate the reaction; concentrations given are final. Reactions were allowed to proceed for 4 hours at 30° C.
IC50 values for compounds were determined using seven different [I]. […]

For a further assay, the system named is HCV replicon cells. Briefly: HCV replicon FRET assay. Type of assay: cell-based. The conditions noted are these: Hepatitis C virus. The text has this: FRET Assay Preparation. To perform the HCV FRET screening assay, 96-well cell culture plates were used. The FRET peptide (Anaspec, Inc.) (Taliani et al., Anal. Biochem. 1996, 240, 60-67) contains a fluorescence donor, EDANS, near one end of the peptide and an acceptor, DABCYL, near the other end. The fluorescence of the peptide is quenched by […] resonance energy transfer (RET) between the donor and the acceptor, but as the NS3 protease cleaves the peptide the products are released from RET quenching and the fluorescence of the donor becomes apparent. The assay reagent was made as follows: 5X cell Luciferase cell culture lysis reagent from Promega (#E153A) diluted to 1× with dH2O, NaCl added to 150 mM final, the FRET peptide diluted to 20 μM final from a 2 mM stock.
To prepare plates, HCV replicon cells, with or without a Renilla luciferase reporter gene, were trypsinized and placed into each well of a 96-well plate with titrated test compounds added in columns 3 through 12; columns 1 and 2 contained a control compound (HCV protease inhibitor), and the bottom row contained cells without compound. The plates were then placed in a CO2 incubator at 37° C.
Assays. Subsequent to addition of the test compounds described above (FRET Assay Preparation), at various times the plate was removed and Alamar blue solution (Trek Diagnostics, #00-100) was added per well as a measure of cellular toxicity. After reading in a Cytoflour 4000 instrument (PE Biosystems), plates were rinsed with PBS and then used for FRET assay by the addition of 30 ul of the FRET peptide assay reagent described above (FRET Assay Preparation) per well. The plate was then placed into the Cytoflour 4000 instrument which had been set to 340 excite/490 emission, automatic mode for 20 cycles and the plate read in a kinetic mode. Typically, the signal to noise using an endpoint analysis after the reads was at least three-fold. Alternatively, after Alamar blue reading, plates were rinsed with PBS, 50 ul of DMEM (high glucose) without phenol red was added and plates were then used for luciferase assay using the Promega Dual-Glo Luciferase Assay System.
Compound analysis was determined by quantification of the relative HCV replicon inhibition and the relative cytotoxicity values. To calculate cytoxicity values, the average Alamar Blue fluorescence signals from the control wells were set as 100% non-toxic. The individual signals in each of the compound test wells were then divided by the average control signal and multiplied by 100% to determine […]. To calculate the HCV replicon inhibition values, an average background value was obtained from the two wells containing the highest amount of HCV protease inhibitor at the end of the assay period. These numbers were similar to those obtained from naïve Huh-7 cells.
The background numbers were then subtracted from the average signal obtained from the control wells and this number was used as 100% activity. The individual signals in each of the compound test wells were then divided by the averaged control values after background subtraction and multiplied by 100% to determine percent activity. EC50 values for a protease inhibitor titration were calculated as the concentration which caused a 50% reduction in FRET or luciferase activity. The two numbers generated for the compound plate, percent cytoxicity and percent activity were used to determine compounds of interest for further analysis.

[1] abbreviates: determined using the preincubation protocol, read-out: IC50.
The mark [2] stands for this setting: determined using the FRET assay, read-out: EC50.

T1 sequence (Q9WMX2 2420-2992): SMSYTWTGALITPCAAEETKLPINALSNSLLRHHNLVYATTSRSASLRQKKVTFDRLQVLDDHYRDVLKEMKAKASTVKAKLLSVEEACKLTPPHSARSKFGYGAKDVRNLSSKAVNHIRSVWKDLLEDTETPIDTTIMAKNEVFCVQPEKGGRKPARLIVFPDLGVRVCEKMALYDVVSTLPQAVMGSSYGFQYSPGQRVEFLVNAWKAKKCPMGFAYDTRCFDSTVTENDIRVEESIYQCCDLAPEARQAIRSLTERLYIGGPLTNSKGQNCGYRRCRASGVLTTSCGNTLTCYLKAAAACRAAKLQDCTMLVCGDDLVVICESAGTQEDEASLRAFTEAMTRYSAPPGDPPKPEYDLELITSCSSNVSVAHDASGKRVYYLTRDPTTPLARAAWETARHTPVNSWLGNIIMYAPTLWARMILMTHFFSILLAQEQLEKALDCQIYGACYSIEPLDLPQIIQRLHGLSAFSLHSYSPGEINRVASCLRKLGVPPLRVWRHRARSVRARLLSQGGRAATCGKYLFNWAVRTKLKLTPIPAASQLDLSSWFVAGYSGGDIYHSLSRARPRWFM

Turning to `COc1ccc2c(c1)C1CC1(CO)Cn1c-2c(C2CCCCC2)c2ccc(C(=O)NS(=O)(=O)N(C)C)cc21` (centres unmarked), the IC50 on HCV NS5B (setting [1]) lay in the range of 1 to 500 nM. In the assay on HCV replicon cells (setting [2]), the concentration giving a half-maximal response (EC50) is 1 to 500 nM.
With `COc1ccc2c(c1)C1CC1(COC(=O)N1CCOCC1)Cn1c-2c(C2CCCCC2)c2ccc(C(=O)NS(=O)(=O)N(C)C)cc21` (centres unmarked), the IC50 at HCV NS5B (setting [1]) was in the range of 1 to 500 nM. For the same compound, the EC50 with HCV replicon cells (setting [2]) was 1 to 500 nM.
Regarding `CCN(CC12CC1c1cc(OC)ccc1-c1c(C3CCCCC3)c3ccc(C(=O)NS(=O)(=O)N(C)C)cc3n1C2)C(C)=O` (centres unmarked), the 50% inhibitory concentration (IC50) on HCV NS5B (setting [1]) fell in the range of 1 to 500 nM. In addition, the EC50 with HCV replicon cells (setting [2]) was 1 to 500 nM.
On to `COc1ccc2c(c1)C1CC1(CN1CCOCC1)Cn1c-2c(C2CCCCC2)c2ccc(C(=O)NS(=O)(=O)N(C)C)cc21` (centres unmarked), for which, at HCV NS5B (setting [1]), the concentration for half-maximal inhibition (IC50) is 1 to 500 nM. The 50% effective concentration (EC50) in the assay with HCV replicon cells (setting [2]) lay in the range of 1 to 500 nM.
On HCV NS5B, `COc1ccc2c(c1)C1CC1(CC(=O)N1C3CCC1CN(C)C3)Cn1c-2c(C2CCCCC2)c2ccc(C(=O)NS(=O)(=O)N(C)C)cc21` (centres unmarked) returned a 50% inhibitory concentration (IC50) above 120 nM. The concentration giving a half-maximal response (EC50) with HCV replicon cells is 1 to 500 nM.
`COc1ccc2c(c1)C1CC1(CC(=O)N1C[C@@H](C)O[C@H](C)C1)Cn1c-2c(C2CCCCC2)c2ccc(C(=O)NS(=O)(=O)N(C)C)cc21` (some centres unmarked): at HCV NS5B (setting [1]), the IC50 fell in the range of 1 to 500 nM. Besides, the EC50 with HCV replicon cells (setting [2]) lay in the range of 1 to 500 nM.
On to `COc1ccc2c(c1)C1CC1(CC(=O)N1CCOCC1)Cn1c-2c(C2CCCCC2)c2ccc(C(=O)NS(=O)(=O)N(C)C)cc21` (centres unmarked), for which, on HCV NS5B (setting [1]), the IC50 lay within 1 to 500 nM. In the assay with HCV replicon cells (setting [2]), the EC50 was 1 to 500 nM.
With `COC(=O)CC12CC1c1cc(OC)ccc1-c1c(C3CCCCC3)c3ccc(C(=O)NS(=O)(=O)N(C)C)cc3n1C2` (centres unmarked), the 50% inhibitory concentration (IC50) on HCV NS5B (setting [1]) lay in the range of 1 to 500 nM. For the same compound, in the assay with HCV replicon cells (setting [2]), the 50% effective concentration (EC50) is above 120 nM.
As to `COc1ccc2c(c1)C1CC1(CC(=O)O)Cn1c-2c(C2CCCCC2)c2ccc(C(=O)NS(=O)(=O)N(C)C)cc21` (centres unmarked), the IC50 at HCV NS5B (setting [1]) lay within 1 to 500 nM. Besides, the 50% effective concentration (EC50) with HCV replicon cells (setting [2]) is 500 to 1000 nM.
For `COC(=O)CC12CC1c1cc(OC)ccc1-c1c(C3CCCCC3)c3ccc(C(=O)O)cc3n1C2` (centres unmarked) the same measures were 1 to 500 nM and 1 to 500 nM.
